Assay results reported in US20100280031A1, “LIPID FORMULATION OF APOPTOSIS PROMOTER” (priority 2009, published 2010).
Where two headings read alike, the source gives them in different places.

How the values were obtained:
[1] = PK study of ABT-263 bis-HCl liquid-filled capsules in non-fasted dogs; type: in vivo, beagle dogs
solubility in water = details: pH 2
Text: It will be recognized that aqueous solubility of many compounds is pH-dependent; in the case of such compounds the solubility of interest herein is at a physiologically relevant pH, for example a pH of about 1 to about 8.

[2] = PK study of ABT-263 free base formulations in rats; type: in vivo, Sprague-Dawley rats; details: fasted rats, 5 mg/kg oral
Description: (§1) Serial heparinized blood samples were obtained from a tail vein of each animal prior to dosing and 0.25, 0.5, 1, 1.5, 2, 3, 4, 6, 8 and 24 hours after administration.

[3] = PK study of ABT-263 free base formulations in fasted dogs; type: in vivo, beagle dogs; details: oral
Description: Serial heparinized blood samples were obtained from a jugular vein of each animal prior to dosing and 0.25, 0.5, 1, 1.5, 2, 3, 4, 6, 9, 12, 15 and 24 hours after administration. […] The bioavailability was calculated as the dose-normalized AUC0-∞ from oral dosing divided by the corresponding value derived from i.v. (intravenous) dosing, administered as a slow bolus to a cephalic vein.

[4] = food-effect PK study of ABT-263 free base formulation in dogs; type: in vivo, beagle dogs; details: 10 mg/kg oral, 20 mg/ml, carrier PEG 400/Phosal 50 PG/DMSO (60:30:10)
[5] = PK study of ABT-263 free base liquid-filled capsules in non-fasted dogs; type: in vivo, beagle dogs
[6] = Phase 1 clinical PK study of ABT-263 bis-HCl formulation (Formulation C); type: in vivo, human; details: humans
Description: The formulation was prepared immediately or shortly (not more than about one month) prior to oral administration.
The study had several cycles, depending on the subjects' response to the drug.
The dose doubled until one grade 3 or two grade 2 toxicities occurred, after which dose escalated in 25-40% increments. Platelet levels were monitored and reviewed to inform dose escalation decisions.
Blood and plasma samples were protected from direct sunlight during collection, processing and storage. The timing of blood collections took priority over other scheduled study activities except for dosing. The order of blood collections was maintained to the minute such that the time intervals relative to the preceding dosing were the same for all subjects.
Blood samples were collected by venipuncture into 3-ml evacuated potassium EDTA-containing collection tubes during Cycle 1 Day −3, prior to dosing (0 hour) and at 0.5, 1, 2, 3, 4, 6, 8, 24, 48 and 72 (Day 1, predose sample) hours after dosing; Day 1, at 0.5, 1, 2, 3, 4, 6, 8 and 24 (Day 2, pre-dose sample) hours after dosing; Day 14, prior to dosing (0 hour) and at 0.5, 1, 2, 3, 4, 6 and 8 hours after dosing. Additional blood samples were collected at 0 hour (pre-dose) on Day 14, Cycle 2 through Cycle 6. Sufficient blood was collected to provide approximately 1 ml plasma from each sample. A total of 27 blood samples (approximately 81 ml) were collected per subject for pharmacokinetic analysis during Cycle 1 and one additional blood sample per subject per cycle, up to Cycle 6.

[7] = PK study of ABT-737 formulations in rats; type: in vivo, Sprague-Dawley rats; details: for AUC(0-inf) / bioavailability / Cmax: rats, 5 mg/kg oral; for bioavailability: read-out: Bioavailability (F %)
Description: as §1
Analysis was performed on a Sciex API3000™ biomolecular mass analyzer with a heated nebulizer interface. ABT-737 and internal standard peak areas were determined using Sciex MacQuan™ software. The plasma drug concentration of each sample was calculated by least squares linear regression analysis (non-weighted) of the peak area ratio (parent/internal standard) of the spiked plasma standards versus concentration. The plasma concentration data were submitted to multi-exponential curve fitting using WinNonlin 3 (Pharsight).
The area under the plasma concentration-time curve from 0 to t hours (time of the last measured plasma concentration) after dosing (AUC0-t) was calculated using the linear trapezoidal rule for the plasma concentration-time profiles. The residual area extrapolated to infinity, determined as the final measured plasma concentration (Ct) divided by the terminal elimination rate constant (β), was added to AUC0-t to produce the total area under the curve (AUC0-∞). The bioavailability was calculated as the dose-normalized AUC0-∞ from oral dosing divided by the corresponding value derived from i.v. (intravenous) dosing, administered as a slow bolus to a jugular vein under light ether anesthetic.

[8] = carrier Labrasol/Tween 20 (70:30), 50 mg/dog
[9] = carrier Phosal 53 MCT, 50 mg/dog
[10] = carrier Phosal 53 MCT/Labrasol (70:30), 50 mg/dog
[11] = carrier Phosal 53 MCT/Tween 20 (80:20), 50 mg/dog
[12] = carrier PEG 400/DMSO (90:10), 2 mg/ml
[13] = carrier PEG 400/Phosal 50 PG/DMSO (60:30:10), 5 mg/ml
[14] = carrier PEG 400/DMSO (90:10), 2.5 mg/kg, 5 mg/ml
[15] = carrier PEG 400/DMSO (90:10), 5 mg/kg, 10 mg/ml
[16] = carrier PEG 400/DMSO (90:10), 10 mg/kg, 20 mg/ml
[17] = carrier PEG 400/Phosal 50 PG/DMSO (60:30:10), 5 mg/kg, 10 mg/ml
[18] = carrier PEG 400/Phosal 50 PG/DMSO (60:30:10), 10 mg/kg, 20 mg/ml
[19] = liquid-filled capsules, carrier Capmul PG-8, 50 mg/dog
[20] = liquid-filled capsules, carrier Capmul PG-8/Cremophor EL (90:10), 50 mg/dog
[21] = liquid-filled capsules, carrier Phosal 53 MCT/PEG 400 (70:30), 50 mg/dog
[22] = liquid-filled capsules, carrier oleic acid/PEG 400/Cremophor EL (80:10:10), 50 mg/dog
[23] = oral, carrier PEG 400/Phosal 50 PG/DMSO (60:30:10), 20 mg/kg
[24] = 315 mg/day, Day 14, non-fasting
[25] = Sprague-Dawley, rat, plasma, po, 5 mg/kg, carrier D5W/PG/DMSO/Tween (70:20:5:5), 5 mg/ml
[26] = Sprague-Dawley, rat, plasma, po, 5 mg/kg, carrier Imwitor 380 (unneutralized)/ethanol (95:5), 10 mg/ml
[27] = Sprague-Dawley, rat, plasma, po, 5 mg/kg, carrier Phosal 50 PG/ethanol (90:10), 50 mg/ml
[28] = Sprague-Dawley, rat, plasma, po, 5 mg/kg, carrier Phosal 53 MCT/ethanol (90:10), 10 mg/ml

## CC1(C)CCC(c2ccc(Cl)cc2)=C(CN2CCN(c3ccc(C(=O)NS(=O)(=O)c4ccc(N[C@H](CCN5CCOCC5)CSc5ccccc5)c(S(=O)(=O)C(F)(F)F)c4)cc3)CC2)C1.Cl.Cl [ABT-263 bis-HCl]
[1]; carrier Labrasol, […]
  Bioavailability (F %): 29.4%
[1]; [8]
  AUC0-∞: 84800 ng·h/mL
  Bioavailability (F %): 39.0%
  Cmax: 10310 ng/mL
[1]; [9]
  AUC0-∞: 89700 ng·h/mL
  Bioavailability (F %): 49.0%
  Cmax: 9250 ng/mL
[1]; [10]
  AUC0-∞: 94300 ng·h/mL
  Bioavailability (F %): 38.5%
  Cmax: 15830 ng/mL
[1]; carrier Phosal 53 MCT/PEG 400 (70:30), […]
  Bioavailability (F %): 40.8%
[1]; [11]
  AUC0-∞: 89900 ng·h/mL
  Bioavailability (F %): 48.5%
  Cmax: 14020 ng/mL

## CC1(C)CCC(c2ccc(Cl)cc2)=C(CN2CCN(c3ccc(C(=O)NS(=O)(=O)c4ccc(N[C@H](CCN5CCOCC5)CSc5ccccc5)c(S(=O)(=O)C(F)(F)F)c4)cc3)CC2)C1 [ABT-263]
Solubility in water
  solubility in water: less than 4 μg/ml
[2]; [12]
  AUC0-∞: 7530 ng·h/mL
  Bioavailability (F %): 21.6%
  Cmax: 670 ng/mL
[2]; [13]
  AUC0-∞: 9960 ng·h/mL
  Bioavailability (F %): 28.5%
  Cmax: 1050 ng/mL
[3]; [14]
  AUC0-∞: 27100 ng·h/mL
  Cmax: 3670 ng/mL
[3]; [15]
  AUC0-∞: 39800 ng·h/mL
  Bioavailability (F %): 16.5%
  Cmax: 6750 ng/mL
[3]; [16]
  AUC0-∞: 58300 ng·h/mL
  Bioavailability (F %): 12.1%
  Cmax: 8460 ng/mL
[3]; [17]
  AUC0-∞: 115100 ng·h/mL
  Cmax: 13220 ng/mL
[3]; [18]
  AUC0-∞: 173900 ng·h/mL
  Bioavailability (F %): 36.0%
  Cmax: 21600 ng/mL
[4]; fasted dogs
  AUC0-∞: 156100 ng·h/mL
  Cmax: 20300 ng/mL
[4]; fasted dogs, 10 mg/kg
  Bioavailability (F %): 32.3%
[4]; non-fasted dogs
  AUC0-∞: 255600 ng·h/mL
  Bioavailability (F %): 52.9%
  Cmax: 23500 ng/mL
[5]; [19]
  AUC0-∞: 59100 ng·h/mL
  Bioavailability (F %): 24.9%
  Cmax: 6400 ng/mL
[5]; [20]
  AUC0-∞: 63300 ng·h/mL
  Bioavailability (F %): 27.7%
  Cmax: 10610 ng/mL
[5]; [21]
  AUC0-∞: 119800 ng·h/mL
  Bioavailability (F %): 53.0%
  Cmax: 21500 ng/mL
[5]; [22]
  AUC0-∞: 43800 ng·h/mL
  Bioavailability (F %): 20.5%
  Cmax: 6840 ng/mL
[5]; [23]
  AUC0-∞: 537200 ng·h/mL
  Bioavailability (F %): 51.3%
  Cmax: 47300 ng/mL
[6]; [24]
  plasma concentration at steady state (peak): about 5.5 μg/ml
  plasma concentration at steady state (trough): about 3 μg/ml
[6]; single 315 mg dose, both fasting and non-fasting (FIG. 2)
  Tmax: around 8 hours

## CN(C)CC[C@H](CSc1ccccc1)Nc1ccc(S(=O)(=O)NC(=O)c2ccc(N3CCN(Cc4ccccc4-c4ccc(Cl)cc4)CC3)cc2)cc1[N+](=O)[O-] [ABT-737, N-(4-(4-((4′-chloro-(1,1′-biphenyl)-2-yl)methyl)piperazin-1-yl)benzoyl)-4-(((1R)-3-(dimethylamino)-1-((phenylsulfanyl)methyl)propyl)amino)-3-nitrobenzene-sulfonamide]
[7]; [25]
  AUC(0-inf): 230 ng·h/mL
  bioavailability: 5.9%
[7]; [26]
  AUC(0-inf): 150 ng·h/mL
  bioavailability: 3.9%
[7]; Sprague-Dawley, rat, plasma, po, 5 mg/kg, carrier Imwitor 380 (unneutralized)/ethanol (95:5), 10 mg/ml, read-out: Cmax
  Cmax: 29 ng/mL
[7]; [27]
  AUC(0-inf): 60 ng·h/mL
  bioavailability: 1.5%
[7]; Sprague-Dawley, rat, plasma, po, 5 mg/kg, carrier Phosal 50 PG/ethanol (90:10), 50 mg/ml, read-out: Cmax
  Cmax: 24 ng/mL
[7]; [28]
  AUC(0-inf): 130 ng·h/mL
  bioavailability: 3.3%
[7]; Sprague-Dawley, rat, plasma, po, 5 mg/kg, carrier Phosal 53 MCT/ethanol (90:10), 10 mg/ml, read-out: Cmax
  Cmax: 28 ng/mL
[7]; carrier D5W/PG/DMSO/Tween (70:20:5:5), 5 mg/ml
  Cmax: 32 ng/mL
[7]; regardless of the carrier
  Bioavailability in rats: extremely low
